Experimental data from US7160914B2, “Compounds that exhibit specific molecular recognition of mixed nucleic acid sequences and bind in the DNA minor groove as a dimer” (The University of North Carolina at Chapel Hill, priority 1999, dated 2007).
Blank lines part the entries; values can stand above or below the molecule they belong to.

Tests used:
[1] = tested on: 265 bp EcoRI-PvuII restriction fragment from plasmid pBS; assay: Quantitative DNase I footprinting; format: binding; conditions: for footprint in the 90–100 base region (GC-rich): 265 mer pBS fragment, DNase I; for binding to sites containing GC base pairs, such as ATGA, ACGA, and ATGT: several restriction fragments
Experimental: In order to characterize the DNA recognition properties of a series of analogs of furamidine (shown in FIG. 1), quantitative DNAaseI footprinting studies were conducted using of a number of derivatives with several different DNA sequences. Plasmid DNA restriction fragments were prepared and DNaseI footprinting experiments were conducted as described in C. Bailly, et al., Biochemistry 35, 1150 (1996) and C. Bailly et al., Anti Cancer Drug Design (in press, 1999).
FIG. 2. illustrates the results of a quantitative DNase I footprinting titration experiment with the compound DB293 on a 265 bp DNA fragment as described herein. The EcoRI-PvuII restriction fragment from plasmid pBS was 3′-end labeled at the EcoRI site with [α-^32P]dATP in the presence of AMV reverse transcriptase. […] Drug concentrations are (lanes 1–11) 0, 0.3, 0.6, 0.9, 1.2, 1.5, 1.8, 2.1, 2.4, 2.7, 3.0 μM for DB 293 and (lanes 12–15) 0, 1, 2 and 5 μM for DB270. Tracks labeled ‘G’ represent dimethylsulphate-piperidine markers specific for guanines. The track labeled DNA contained no drug and no enzyme. Numbers at the right side of the gel refer to the numbering scheme of the fragment. The rectangles on the left side refer to the positions of (open box) an AT-rich and (filled box) a GC-rich binding site for DB293. FIG. 2B is a graphical illustration of footprinting plots for the binding of DB293 to (open circles) the AT site 5′-AATTAA and (filled squares) the GC-rich site 5′-ACCATG. The relative band intensity R corresponds to the ratio Ic/Io where Ic is the intensity of the band at the ligand concentration c and Io is the intensity of the same band in the absence of DB293. The differential cleavage plots shown in FIG. 2C compare the susceptibility of the DNA to cutting by DNase I in the presence of (filled circles) 5 μM DB270 or (open squares) 1.5 μM DB293. Deviation of points towards the lettered sequence (negative values) corresponds to a ligand-protected site and deviation away (positive values) represents enhanced cleavage. The vertical scale is in units of ln(fa)–l(fc), where fa is the fractional cleavage at any bond in the presence of the drug and fc is the fractional cleavage of the same bond in the control. […] The rectangles below the sequence show the positions of (open box) the AT binding site and (filled box) the GC-rich site.

hairpin duplex oligo2-1 = assay: Thermal melting (Tm) of hairpin oligo2-1; format: binding; conditions: 1:1 and 2:1 ratios, single transitions
oligo2-1 hairpin duplex = tested on: oligo2-1 hairpin duplex
Experimental: (§1) To pursue the comparative quantitative analysis of these compounds with DNA in more detail by using surface plasmon resonance, 5′-biotin labeled analogs of oligo2-1 and 2-2 were immobilized on a BIAcore four-channel streptavidine-coated sensor chip as follows: Immobilization of DNA and surface plasmon resonance (SPR) binding studies: 5′-biotin labeled hairpins were purchased with HPLC purification (Midland Co). […] Steady state analysis was performed with multiple injections f different concentrations of each compound over the SA surface at a flow rate of 20 μl/min, at 25° C.
(§2) Oligo1 was immobilized as a control sequence and one flow cell was left as an unmodified reference. […] The free compound is fixed by the concentration in the flow solution.

[2] = tested on: hairpin duplex oligo2 (93–104 base sequence region of the 265 mer pBS restriction fragment); assay: Thermal melting (Tm) of hairpin oligo2; format: binding; conditions: oligo2 on titration with compound; 0.01 M MES, 0.001M EDTA
Experimental: In order to investigate the complexes of these compounds in more detail with GC rich sequences, a hairpin duplex model containing the 93–104 base sequence region from the 265 mer pBS restriction fragment was synthesized and is illustrated as oligo2 in FIG. 1. Oligo1 (also shown in FIG. 1) with the AATT sequence that has been used in the analysis of a large number of minor-groove agents provides a reference.
Thermal melting experiments were conducted with a Cary 4 spectrophotometer interfaced to a microcomputer. A thermistor fixed into a reference cuvette was used to monitor the temperature. The oligomers were added to 1 mL of buffer (0.01 M MES and 0.001M EDTA) in 1 cm path length reduced volume quartz cells, and the concentration was determined by measuring the absorbance at 260 nm. Experiments were generally conducted at a concentration of 2×10^−6 M for hairpin oligo2, and 3×10^−6 M for hairpin oligo2-1. Tm experiments for the complexes were conducted as a function of ratio.

oligo2-2 hairpin duplex = conditions: SPR, two site model
Experimental: as §1, §2

- footprint in the 90–100 base region (GC-rich) [1]: negligible footprints
- binding to oligo2-1 relative to binding to oligo1 (oligo2-1 hairpin duplex; SPR): at least a factor of ten weaker
Structure (SMILES): N=C(N)c1ccc2nc(-c3ccc(-c4nc5ccc(C(=N)N)cc5[nH]4)o3)[nH]c2c1 [DB270, reference compound]
- binding to sites containing GC base pairs, such as ATGA, ACGA, and ATGT [1]: not and do not bind strongly or footprint
- melting temperatures of complexes with oligo2-1 (hairpin duplex oligo2-1): below the DB293 value

Structure (SMILES): N=C(N)c1ccc(-c2ccc(-c3nc4ccc(C(=N)N)cc4[nH]3)o2)cc1 [DB293]
- footprint in the 90–100 base region (GC-rich) [1]: very strong footprint
- C50 (drug concentration required for half-maximal footprinting) at the ATGA site versus the neighboring ATTA site ([1]; ATGA site compared with ATTA site): significantly lower
- binding to sites containing GC base pairs, such as ATGA, ACGA, and ATGT [1]: strongly binds
- increase in Tm [2]: ≤ 30 °C
- K2 relative to K1 (times larger) (oligo2-1 hairpin duplex; also relative to binding of DB270): over 25 times
- macroscopic binding constant K1 (initial binding) (oligo2-1 hairpin duplex; oligo2-1, two site model): 2.8×10^6
- macroscopic binding constant K2 (second site after the first site is filled) (oligo2-1 hairpin duplex; oligo2-1, two site model): 7.3×10^7
- binding to oligo2-2 compared with oligo2-1 (oligo2-2 hairpin duplex): Very similar results
